# Patent publication US5726159A, “Antithrombotic agents” (Eli Lilly and Company, priority 1995, dated 1998)
# Structures can show the parent of a compound that is named as a salt.
# Columns and labels:
# Bovine trypsin = target: T1, Bovine trypsin (Bos taurus, UniProt P00760); assay: Kass for trypsin, chromogenic substrate; type: biochemical
# T1 construct: Bovine trypsin is purchased from Worthington Biochemicals, Freehold, N.J; purchased Worthington Biochemicals, Freehold, N.J
# T1 sequence (P00760 24-246): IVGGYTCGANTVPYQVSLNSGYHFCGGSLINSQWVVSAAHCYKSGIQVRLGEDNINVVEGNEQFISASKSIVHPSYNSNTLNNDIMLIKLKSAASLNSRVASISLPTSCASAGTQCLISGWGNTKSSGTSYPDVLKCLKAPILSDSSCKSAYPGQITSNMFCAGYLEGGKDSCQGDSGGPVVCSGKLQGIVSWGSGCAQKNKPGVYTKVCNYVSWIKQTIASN
# Method: (§1) By substantially following the procedures described above for human thrombin, and using other human blood coagulation system serine proteases and proteases of the fibrinolytic system with the appropriate chromogenic substrates, identified below, selectivity of the compounds of the present invention with respect to the coagulation factor serine proteases and with respect to the fibrinolytic system serine proteases are evaluated as well as their substantial lack of interference with serine proteases of the fibrinolytic system. […] This would be important to the therapeutic use of such agents as an adjunct to streptokinase, t-PA or urokinase thrombolytic therapy and to the use of such agents as an endogenous fibrinolysis-sparing (with respect to t-PA and urokinase) antithrombotic agent. In addition to the lack of interference with the amidase activity of the fibrinolytic proteases, such fibrinolytic system sparing can be studied by the use of human plasma clots and their lysis by the respective fibrinolytic plasminogen activators.
# (§2) Chromogenic substrates: N-Benzoyl-Ile-Glu-Gly-Arg-p-nitroanilide (for factor Xa); N-Cbz-D-Arg-Gly-Arg-p-nitroanilide (for factor IXa assay as the factor Xa substrate); Pyroglutamyl-Pro-Arg-p-nitroanilide (for Factor XIa and for aPC); H-D-Pro-Phe-Arg-p-nitroanilide (for factor XIIa); and Pyroglutamyl-Gly-Arg-p-nitroanilide (for urokinase); are purchased from KabiVitrnm, Stockholm, Sweden, or from Midwest Biotech, Fishers, Ind. Bovine trypsin is purchased from Worthington Biochemicals, Freehold, N.J., and human plasma kallikrein from Kabi Vitrum, Stockholm, Sweden. Chromogenic substrate H-D-Pro-Phe-Arg-p-nitroanilide for plasma kallikrein is purchased from Kabi Vitrum, Stockholm, Sweden. N-Benzoyl-Phe-Val-Arg-p-nitroanilide, the substrate for human thrombin and for trypsin, is synthesized according to procedures described above for the compounds of the present invention, using known methods of peptide coupling from commercially available reactants or purchased from Midwest Biotech, Fishers, Ind.
# t-PA = target: T2, t-PA (Homo sapiens, UniProt P00750); assay: Kass for t-PA, chromogenic substrate; type: biochemical
# T2 construct: purchased American Diagnostica, Greenwich, Conn
# T2 sequence (P00750 36-562): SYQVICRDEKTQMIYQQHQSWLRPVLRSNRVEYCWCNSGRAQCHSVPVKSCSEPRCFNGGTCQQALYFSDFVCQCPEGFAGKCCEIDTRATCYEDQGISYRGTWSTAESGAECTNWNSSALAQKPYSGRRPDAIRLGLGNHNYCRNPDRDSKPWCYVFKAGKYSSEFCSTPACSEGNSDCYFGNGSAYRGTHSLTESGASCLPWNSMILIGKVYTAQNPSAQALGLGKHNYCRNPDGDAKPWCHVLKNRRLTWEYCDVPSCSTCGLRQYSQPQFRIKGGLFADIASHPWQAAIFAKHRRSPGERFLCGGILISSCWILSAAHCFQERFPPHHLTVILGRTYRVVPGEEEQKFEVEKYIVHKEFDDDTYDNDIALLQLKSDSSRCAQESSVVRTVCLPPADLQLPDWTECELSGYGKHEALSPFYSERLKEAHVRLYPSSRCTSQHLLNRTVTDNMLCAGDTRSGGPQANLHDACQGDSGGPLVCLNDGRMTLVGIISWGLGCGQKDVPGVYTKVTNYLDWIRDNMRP
# Method: as §1
# Human plasma [1] = assay: Human plasma anticoagulation, thrombin time (TT); type: biochemical; conditions: concentration required to double the clotting time
# Outline: (§3)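 Citrated human plasma + cpd (broad conc. range); instrument clot timing. PT: saline/Thromboplastin-C. APTT: Actin 120 s, then CaCl2 0.02M. TT: saline/bovine thrombin 10 NIH units/mL. Value = conc. doubling clotting time, linear extrapolation.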
# Human plasma [2] = assay: Human plasma anticoagulation, activated partial thromboplastin time (APTT); type: biochemical; conditions: concentration required to double the clotting time
# Outline: as §3
# Human plasma [3] = assay: Human plasma anticoagulation, prothrombin time (PT); type: biochemical; conditions: concentration required to double the clotting time
# Outline: as §3
# human thrombin = human thrombin (Homo sapiens, UniProt P00734); assay: Inhibition of thrombin amidase activity (Kass), chromogenic substrate; type: biochemical; conditions: association constant, mean over concentrations
# factor Xa = factor Xa (Homo sapiens, UniProt P00742); assay: Kass for factor Xa, chromogenic substrate; type: biochemical
# Sequence of factor Xa (P00742 235-488 limits assumed): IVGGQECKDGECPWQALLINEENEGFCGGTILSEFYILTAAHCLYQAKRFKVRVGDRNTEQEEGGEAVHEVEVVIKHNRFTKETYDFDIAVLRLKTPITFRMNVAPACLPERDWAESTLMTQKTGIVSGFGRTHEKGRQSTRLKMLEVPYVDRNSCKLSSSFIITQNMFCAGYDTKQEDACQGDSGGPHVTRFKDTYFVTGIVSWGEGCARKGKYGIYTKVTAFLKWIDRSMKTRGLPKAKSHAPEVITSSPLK
# Sequence of factor Xa (P00742 41-179 partner limits assumed): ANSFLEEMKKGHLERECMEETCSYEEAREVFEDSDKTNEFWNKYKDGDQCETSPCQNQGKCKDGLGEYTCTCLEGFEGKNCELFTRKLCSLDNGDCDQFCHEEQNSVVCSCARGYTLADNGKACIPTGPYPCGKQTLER
# Method: as §1, §2
# Human plasmin = target: T3, Human plasmin (Homo sapiens, UniProt P00747); assay: Kass for plasmin, chromogenic substrate; type: biochemical
# T3 construct: Human plasmin is purchased from Boehringer Mannheim, Indianapolis, Ind; purchased Boehringer Mannheim, Indianapolis, Ind
# T3 sequence (P00747 581-810 limits assumed): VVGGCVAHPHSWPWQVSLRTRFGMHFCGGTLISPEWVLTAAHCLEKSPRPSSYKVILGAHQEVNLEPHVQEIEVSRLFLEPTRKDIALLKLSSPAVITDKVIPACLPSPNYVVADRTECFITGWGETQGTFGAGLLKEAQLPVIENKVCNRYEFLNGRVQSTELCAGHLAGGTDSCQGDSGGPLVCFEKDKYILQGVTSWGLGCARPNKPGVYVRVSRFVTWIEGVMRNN
# T3 sequence (P00747 97-580 partner limits assumed): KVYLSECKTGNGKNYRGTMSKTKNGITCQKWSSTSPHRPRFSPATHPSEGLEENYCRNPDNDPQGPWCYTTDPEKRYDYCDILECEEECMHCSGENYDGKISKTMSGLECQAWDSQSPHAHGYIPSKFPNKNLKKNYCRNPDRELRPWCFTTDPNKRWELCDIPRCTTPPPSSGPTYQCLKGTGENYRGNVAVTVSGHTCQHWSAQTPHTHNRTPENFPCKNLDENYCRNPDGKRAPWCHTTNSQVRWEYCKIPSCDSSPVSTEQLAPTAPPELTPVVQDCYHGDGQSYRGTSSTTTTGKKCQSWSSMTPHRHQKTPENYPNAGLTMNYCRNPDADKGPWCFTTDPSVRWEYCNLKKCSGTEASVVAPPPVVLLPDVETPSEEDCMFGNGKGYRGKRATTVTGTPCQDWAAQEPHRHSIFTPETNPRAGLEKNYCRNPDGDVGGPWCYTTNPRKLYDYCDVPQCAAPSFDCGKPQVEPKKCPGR
# Method: as §1
# thrombin = conditions: Bajusz et al., J. Med. Chem. 1990; cited from earlier work
Compound,Kass Trypsin (Bovine trypsin),Kass t-PA (t-PA),2x Clotting time TT (Human plasma [1]),2x Clotting time APTT (Human plasma [2]),2x Clotting time PT (Human plasma [3]),Kass Human Thrombin (human thrombin),Kass Xa (factor Xa),Kass Plasmin (Human plasmin),direct inhibition of thrombin (thrombin)
"N=C(N)c1ccc(CNC(=O)[C@@H]2C[C@@H]3CCCC[C@@H]3N2C(=O)[C@@H](Cc2ccccc2)NCC(=O)O)cc1 (relative stereo) [Example 47, HOOCCH2 -D-Phe-cis-Ohi-p-NHCH2 C6 H4 C(NH)NH2.HCl]",82. × 10^6 (L/mole),0.01 × 10^6 (L/mole),12. ng/mL,140 ng/mL,270 ng/mL,–,–,–,–
EtSO2 -D-Phe-Pro-p-NHCH2 -C6 H4 C(=NH)NH2.HCl [Example 23],21 × 10^6 (L/mole),0.31 × 10^6 (L/mole),7 ng/mL,86 ng/mL,120 ng/mL,770 × 10^6 (L/mole),0.14 × 10^6 (L/mole),0.44 × 10^6 (L/mole),–
CC(C)(C)OC(=O)N[C@H](Cc1ccccc1)C(=O)N1CCC[C@H]1C(=O)N[C@H](C=O)CCCNC(=N)N [Boc-D-Phe-Pro-Arg-H],–,–,–,–,–,–,–,–,potent direct inhibition of thrombin
"CCS(=O)(=O)N[C@H](Cc1ccccc1)C(=O)N1CCC[C@H]1C(=O)NCCc1cccc(NC(=N)N)c1 [Example 37, EtSO2 -D-Phe-Pro-m-NHCH2 CH2 C6 H4 NHC(NH)NH2.HCl]",–,–,"> 9,000 ng/mL","> 9,000 ng/mL","> 9,000 ng/mL",–,< 0.009 × 10^6 (L/mole),–,–
HO2 CCH2 -D-Cha-Pro-4-NHCH2 -2-amidinothiophene.HCl [Example 65],570. × 10^6 (L/mole),–,1 ng/mL,48 ng/mL,–,"4,500 × 10^6 (L/mole)",–,–,–
EtSO2 -Phg-cis-Ohi-p-NHCH2 C6 H4 C(NH)NH2.HCl [Example 44],–,0.04,4. ng/mL,100 ng/mL,170 ng/mL,–,0.66,1.8,–
D-hPro-N(PhCH2 CH2)Gly-p-NHCH2 -C6 H4 C(NH)NH2.2HCl [Example 21],0.96 × 10^6 (L/mole),0.002 × 10^6 (L/mole),160 ng/mL,"2,000 ng/mL","1,000 ng/mL",3.6 × 10^6 (L/mole),0.62 × 10^6 (L/mole),0.031 × 10^6 (L/mole),–
CN[C@H](Cc1ccccc1)C(=O)N1CCC[C@H]1C(=O)N[C@H](C=O)CCCNC(=N)N [D-MePhe-Pro-Arg-H],–,–,–,–,–,–,–,–,potent direct inhibition of thrombin
D-hPro-Pro(4-cis-PhO)-p-NHCH2 -C6 H4 C(NH)NH2.2HCl [Example 22],8.5 × 10^6 (L/mole),0.004 × 10^6 (L/mole),170 ng/mL,"2,300 ng/mL","1,000 ng/mL",3.0 × 10^6 (L/mole),0.043 × 10^6 (L/mole),0.042 × 10^6 (L/mole),–
NMI-D-Phe-Pro-Agm.HCl [Example 4],–,–,230 ng/mL,–,–,13. × 10^6 (L/mole),–,–,–
"N=C(N)c1ccc(CNC(=O)[C@@H]2C[C@@H]3CCCC[C@@H]3N2C(=O)[C@@H]2NCC[C@@H]3CCCC[C@@H]32)cc1 (relative stereo) [Example 42, D-1-Piq-cis-Ohi-p-NHCH2 C6 H4 C(NH)NH2.2HCl]",43. × 10^6 (L/mole),0.01 × 10^6 (L/mole),20 ng/mL,270 ng/mL,320 ng/mL,38. × 10^6 (L/mole),–,–,–
"CCS(=O)(=O)N[C@H](Cc1ccccc1)C(=O)N1CCC[C@H]1C(=O)NCCc1ccc(C(=N)N)cc1 [Example 26, EtSO2 -D-Phe-Pro-p-NHCH2 CH2 -C6 H4 C(=NH)NH2.HCl]",–,0.01 × 10^6 (L/mole),37 ng/mL,870 ng/mL,750 ng/mL,13. × 10^6 (L/mole),–,–,–
"N=C(N)c1ccc(CNC(=O)[C@@H]2C[C@@H]3CCCC[C@@H]3N2C(=O)[C@H]2C[C@H]3CCCC[C@H]3CN2)cc1 (relative stereo) [Example 43, D-3-Piq-cis-Ohi-p-NHCH2 C6 H4 C(NH)NH2.2HCl]",100. × 10^6 (L/mole),0.01 × 10^6 (L/mole),280 ng/mL,"1,100 ng/mL",930 ng/mL,–,–,–,–
HOOCCH2 -D-Phe-Pro-p-NHCH2 C6 H4 C(NH)NH2.HCl [Example 46],48.,0.01,2. ng/mL,67 ng/mL,77 ng/mL,–,–,–,–
N=C(N)NCCC[C@@H](C=O)NC(=O)[C@@H]1CCCN1C(=O)[C@H](N)Cc1ccccc1 [D-Phe-Pro-Arg-H],–,–,–,–,–,–,–,–,potent direct inhibition of thrombin
"N=C(N)c1ccc(CNC(=O)[C@@H]2CCCN2C(=O)[C@@H](CC2CCCCC2)NCC(=O)O)c(F)c1 [Example 71, HO2 CCH2 -D-Cha-Pro-4-NHCH2 -3-F-benzamidine.HCl]",240. × 10^6 (L/mole),–,1 ng/mL,89 ng/mL,150 ng/mL,–,–,–,–
"N=C(N)c1ccc(CNC(=O)[C@@H]2CCCN2C(=O)[C@H](N)CC2CCCCC2)cc1 [Example 51, D-Cha-Pro-p-NHCH2 C6 H4 C(NH)NH2.2HCl]",27. × 10^6 (L/mole),0.01 × 10^6 (L/mole),2 ng/mL,48 ng/mL,110 ng/mL,–,–,–,–
"N=C(N)c1ccc(CNC(=O)[C@@H]2CCCN2C(=O)[C@@H](CC2CCCCC2)NCCC(=O)O)cc1 [Example 52, HOOCCH2 CH2 -D-Cha-Pro-p-NHCH2 C6 H4 C(NH)NH2.HCl]",47. × 10^6 (L/mole),0.01 × 10^6 (L/mole),6 ng/mL,80 ng/mL,170 ng/mL,–,–,–,–
"CCS(=O)(=O)N[C@H](Cc1ccccc1)C(=O)N1[C@H](C(=O)NCc2ccc(C(=N)N)cc2)C[C@@H]2CCCC[C@@H]21 (relative stereo) [Example 45, EtSO2 -Phe-cis-Ohi-p-NHCH2 C6 H4 C(NH)NH2.HCl]",110. × 10^6 (L/mole),–,8 ng/mL,200 ng/mL,330 ng/mL,–,–,–,–
